# From patent publication US20230331720A1, “MEDIUM- OR MACRO-CYCLIC BENZYL-SUBSTITUTED HETEROCYCLE DERIVATIVES AND THEIR USES AS OREXIN-2 RECEPTOR AGONISTS” (Orexia Therapeutics Limited, priority 2020, published 2023)
# Biological target: T1, human orexin type 2 receptor (hOX2R) (Homo sapiens, UniProt O43614)
# T1 construct: expressed in transfected cells
# T1 sequence (O43614 1-444): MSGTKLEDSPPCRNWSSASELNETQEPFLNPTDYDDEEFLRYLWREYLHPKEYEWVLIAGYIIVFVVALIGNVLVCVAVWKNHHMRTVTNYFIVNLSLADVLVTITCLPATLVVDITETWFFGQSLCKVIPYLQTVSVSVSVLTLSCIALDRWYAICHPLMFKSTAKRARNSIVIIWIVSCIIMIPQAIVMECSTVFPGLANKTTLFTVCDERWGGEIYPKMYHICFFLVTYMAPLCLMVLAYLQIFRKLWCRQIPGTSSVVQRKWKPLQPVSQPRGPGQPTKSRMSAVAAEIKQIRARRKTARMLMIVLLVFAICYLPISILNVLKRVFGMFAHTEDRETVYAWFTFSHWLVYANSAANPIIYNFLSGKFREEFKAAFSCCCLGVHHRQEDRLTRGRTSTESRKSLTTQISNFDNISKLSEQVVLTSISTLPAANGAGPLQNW
# Assay: Orexin type 2 receptor agonist activity, intracellular Ca2+ (FLIPR TETRA)
# Assay type: cell-based
# Details: CHO cells expressing hOX2R; Ca2+ fluorescence area
# Description: Stable cell line generation. Obtainment of cells stably expressing either human orexin type 2 or human orexin type 1 receptor; to obtain a stable cell line the Orexin receptor cDNA was inserted into pcDNA3.1(+) plasmid vector and clones identified by G418 drug resistance selection. […] A single clone for OX2R-CHO and OX1R-CHO were grown in bulk and frozen to generate a cell bank for routine screening.
# Measurement of orexin type 2 receptor agonist activity. Chinese hamster ovary (CHO) cells expressing human orexin type 2 receptor (hOX2R) or human orexin type 1 receptor (hOX1R) were seeded in each well of 384 well black clear bottom plates (BD Flacon) at 10,000 cells per well and cultured for 24 hr in an Ham's F12 (Gibco) medium containing 10% fetal calf serum (Sigma Aldrich) under the conditions of 37° C., 5% CO2. After removal of the medium, 50 μl of assay buffer 1 (0.1% bovine serum albumin (Sigma Aldrich), 20 mM HEPES (Molecular Dimensions), […] probenecid (Sigma Aldrich), 1× Calcium 5 dye (Molecular Devices) in Hank's balanced salt solution (Invitrogen)) was added, and the cells were incubated for 60 min under the conditions of 37° C., 5% CO2. A test compound was dissolved in dimethyl sulfoxide (Sigma Aldrich) to 10 mM, and then diluted with assay buffer 2 (20 mM HEPES, Hank's balanced salt solution, 0.1% bovine serum albumin). For the reaction, a test compound solution (10 μl) was added using Fluorescent Imaging Plate Reader TETRA (FLIPR TETRA: manufactured by Molecular Devices), a fluorescence value (excitation wavelength 488 nm, measurement wavelength 570 nm) of each well was measured every one second for 2 min, and the agonist activity was determined using the area of the fluorescence value as an indicator of intracellular Ca^2+ concentration. The agonist activity of the test compound was calculated assuming that the fluorescence value of the well added with only the dilution buffer was 0% and the fluorescence value of the well added with 10 nM human orexin A (Tocris) buffer was 100%. As used herein, Emax indicates the value at 10 μM concentration when orexin A is converted to a full agonist (maximum value of agonist activity: 100%).
row,Compound,hOx2 pEC50
1,"CCS(=O)(=O)NC1CCN2C(=O)NCCCCCOc3ccccc3-c3cccc(c3)CC12 (centres unmarked) [Compound A1-23, N-(5-oxo-12-oxa-6-aza-4(2,1)-pyrrolidina-1(1,2),2(1,3)-dibenzenacyclo-dodecaphane-43-yl)ethanesulfonamide]",+ (6.0≤“+”<7.0)

# Same assay, conditions: CHO cells expressing hOX2R; Ca2+ fluorescence area; read-out: hOx2 pEC50 (converted)
row,EC50 [nM],Compound
1,10 to 100,"CS(=O)(=O)NC1CCN2C(=O)N3CC(CCc4ccccc4-c4cccc(c4)CC12)C3 (racemic) [Compound A1-13, N-(5-oxo-4-(2,1)-pyrrolidina-6-(1.3)-azetidina-1-(1,2),2-(1,3)-dibenzena-cyclooctaphane-4^3-yl)methanesulfonamide]"
2,1 to 10,"CN1CCOc2ccccc2-c2cccc(c2F)C[C@H]2[C@@H](NS(=O)(=O)CF)[C@@H](F)CN2C1=O [Compound A1-92, N-((4^2S,4^3R,4^4S)-2^2,4^4-difluoro-6-methyl-5-oxo-9-oxa-6-aza-4(2,1)-pyrrolidina-1(1,2),2(1,3)-dibenzenacyclononaphane-4^3-yl)-1-fluoromethanesulfonamide]"
3,10 to 100,C[C@H]1COc2ccccc2-c2cccc(c2)C[C@H]2[C@@H](NS(C)(=O)=O)CCCN2C1=O [Compound A1-85]
4,1 to 10,"CCS(=O)(=O)NC1CCN2C(=O)NCC/C=C/Cc3ccccc3-c3cccc(c3)CC12 (racemic) [Compound A1-52, (E/Z)—N-(5-oxo-6-aza-4(2,1)-pyrrolidina-1(1,2),2(1.3)-dibenzenacyclo-undecaphan-9-en-43-yl)ethanesulfonamide]"
5,100 to 1000,"CCS(=O)(=O)NC1CCN2C(=O)OCC/C=C\Cc3ccccc3-c3cccc(c3)CC12 (racemic) [Compound A1-56, (E/Z)—N-(5-oxo-6-oxa-4(2,1)-pyrrolidina-1(1,2),2(1,3)-dibenzenacyclo-undecaphan-9-en-4^3-yl)ethanesulfonamide]"
6,0.1 to 1,"O=C1CCOc2c(F)cccc2-c2cccc(c2)C[C@H]2[C@@H](NS(=O)(=O)CF)CCCN12 [Compound A1-90, 1-fluoro-N-((4^2S,4^3S)-13-fluoro-5-oxo-8-oxa-4(2,1)-piperidina-1(1,2),2(1,3)-dibenzenacyclooctaphane-4^3-yl)methanesulfonamide]"
7,10 to 100,O=C1CCOc2ccccc2-c2cccc(c2F)C[C@H]2[C@@H](NS(=O)(=O)CF)CCCN12 [Compound A1-102]
8,10 to 100,CS(=O)(=O)N[C@H]1CCCN2C(=O)CCCc3ccccc3-c3cccc(c3)C[C@@H]12 [Compound A1-67]
9,10 to 100,"CS(=O)(=O)N[C@@H]1CCCN2C(=O)CCCOc3ccccc3-c3cccc(c3)C[C@H]12 (racemic) [Compound A1-6, N-(5-oxo-9-oxa-4(2,1)-piperidina-1(1,2),2(1,3)-dibenzenacyclononaphane-4^3-yl)methanesulfonamide]"
10,10 to 100,O=C1CCOc2ccccc2-c2cccc(c2F)C[C@H]2[C@@H](NS(=O)(=O)C(F)F)[C@@H](F)CN12 [Compound A1-96]
11,10 to 100,CS(=O)(=O)N[C@H]1CCCN2C(=O)CCOc3ccccc3-c3cccc(c3)C[C@@H]12 [Compound A1-68]
12,10 to 100,"O=C1CCOc2cccc(F)c2-c2cccc(c2)C[C@H]2[C@@H](NS(=O)(=O)CF)CCCN12 [Compound A1-89, 1-fluoro-N-((4^2S,4^3S)-16-fluoro-5-oxo-8-oxa-4(2,1)-piperidina-1(1,2),2(1,3)-dibenzenacyclooctaphane-4^3-yl)methanesulfonamide]"
13,10 to 100,CN(C)S(=O)(=O)N[C@@H]1CCCN2C(=O)CCOc3ccccc3-c3cccc(c3)C[C@H]12 [Compound A1-75]
14,100 to 1000,"CS(=O)(=O)N[C@H]1CCCN2C(=O)NCCOc3ccccc3-c3cccc(c3)C[C@@H]12 [Compound A1-4, N-((4^2S,4^3S)-5-oxo-9-oxa-6-aza-4(2,1)-piperidina-1(1,2),2(1,3)-dibenzenacyclo-nonaphane-4^3-yl)methanesulfonamide]"
15,10 to 100,CS(=O)(=O)NC1CCCN2C(=O)OCCOc3ccccc3-c3cccc(c3)CC12 (centres unmarked) [Compound A1-63]
16,1 to 10,COc1c2cccc1-c1ccccc1OCCC(=O)N1CCC[C@H](NS(C)(=O)=O)[C@@H]1C2 [Compound A1-83]
